# Entries after “also recorded” stand apart in the source; their conditions may differ.
# Assays:
# Format in all cases: in vivo, Sprague-Dawley (SD) rats
# [1] = test system: STZ-diabetic rats; experiment: Relief of tactile allodynia (von Frey paw withdrawal thresholds) in the hindpaws of STZ-diabetic rats (model of PDN)
# Protocol: Adult male SD rats were anaesthetized in a manner similar to that described above, to facilitate insertion of a polyethylene cannula (previously filled with 0.1 ml of sterile saline) into the right common jugular vein. Jugular vein cannulae were tested for correct placement by the withdrawal of a small amount of blood. Diabetes was induced following an acute i.v. injection of streptozotocin (STZ) (80 mg/kg) in 0.1 M citrate buffer (pH 4.5) into the jugular vein. Diabetes was confirmed by monitoring the water intake and blood glucose concentration in individual rats. Blood glucose was monitored using either (Glucostix™) or a Precision QID™ test kit.
# Consistent with previous studies in the literature (Calcutt et al., 1996, Pain. 68(2-3):293-9), rats that drank more than 100 mL of water per day by 10 days post-STZ injection, were classified as diabetic, and only rats with blood glucose concentrations exceeding 15 mM were included in the subsequent experiments. By comparison, the water intake of control non-diabetic rats was approximately 20 mL per day and blood glucose concentrations were in the range 5-6 mM, consistent with the literature (Calcutt et al., 1996, supra).
# Whilst under light anaesthesia with CO2/O2 (50:50%), CCI-rats or STZ-diabetic rats received a single bolus injection (200 μL) of one AT2 receptor antagonist (PD123,319 or L-159,686) by the intravenous (i.v.) or the intraperitoneal (i.p.) route, using a 250 μL Hamilton syringe. The test compounds were administered to CCI-rats at 14 days after CCI-surgery and to STZ-diabetic rats at approximately 8-wks after the induction of diabetes with STZ. Relief of tactile (mechanical) allodynia, the defining symptom of neuropathic pain, by each of the test agents, PD123,319 or L-159,686, was quantified using calibrated von Frey filaments as described below.
# Tactile allodynia was quantified using calibrated von Frey filaments. Rats were placed in wire mesh testing cages (20 cm×20 cm×20 cm) and allowed to acclimatise for approximately […] Von Frey filaments were used to determine the lowest mechanical threshold required for a brisk paw withdrawal reflex. Briefly, the filament that produced the lowest force was applied to the plantar surface of the hindpaw until the filament buckled slightly. Absence of a response after 5 s prompted use of the next filament in an ascending sequence. Filaments used produced a buckling weight of 2, 4, 6, 8, 10, 12, 14, 16, 18 and 20 g and these were calibrated prior to each testing session.
# For CCI-rats, baseline von Frey paw withdrawal thresholds (PWTs) were quantified prior to CCI-surgery, and at 14 days post-surgery immediately prior to drug administration. For STZ-diabetic rats, baseline von Frey PWT values were determined prior to the induction of diabetes with STZ and at 1-2 weekly intervals thereafter for 8 weeks to document the temporal development of tactile allodynia. For all rats, baseline PWTs were the mean of three readings taken, 5 min apart before drug administration and were determined separately for each hindpaw. After administration of each test compound, von Frey PWTs were determined at the following post-dosing times: 0.08, 0.25, 0.5, 0.75, 1, 1.25, 1.5, 2 and 3 h.
# Paw withdrawal thresholds (PWTs; g) were plotted against time to construct response versus time curves for each of the two test compounds (PD123,319 and L-159,686) for each dose and dosing route.
# Whilst adult male SD rats were anaesthetized with 3% isoflurane: 97% oxygen, a short polyethylene cannula (0.4 mm ID, 0.8 mm OD) was inserted into the jugular vein to facilitate the intravenous (i.v) administration of a single dose of STZ (75 mg/kg). After removal of the i.v. cannula, the jugular vein was tied off, the wound was closed and topical bupivacaine was applied. Rats received benzylpenicillin (60 mg s.c.) to prevent infection and were kept warm during surgical recovery. […]
# [2] = test system: rats with a chronic constriction injury (CCI) of the sciatic nerve; experiment: Antinociception (von Frey paw withdrawal thresholds) in the contralateral hindpaw of CCI-rats; details: i.p. doses up to 30 μg/kg
# Protocol: (§1) Adult male Sprague-Dawley (SD) rats were anaesthetized with Zoletil 100® (0.09 ml/200 g) and Xylazil-20™ (0.1 mL/200 g) administered by intraperitoneal (i.p.) injection, and a chronic constriction injury (CCI) of the sciatic nerve was produced according to the method of Bennett and Xie (1988). Briefly, the left common sciatic nerve was exposed at mid-thigh level by blunt dissection through the biceps femoris. Proximal to the trifurcation, 10 mm of nerve was freed of adhering tissue and four loose ligatures (3.0 silk) were tied around the sciatic nerve 1 mm apart). The incision was closed in layers. After surgery, rats received benzylpenicillin (60 mg s.c.) to prevent infection and were kept warm during surgical recovery. Rats were housed singly for 10-14 days prior to AT2 receptor antagonist or vehicle (normal saline) administration. After CCI-surgery, rats were inspected daily with regard to posture of the affected hindpaw, exploring behavior, body weight and water intake, and any signs of autotomy. Whilst under light anaesthesia with CO2/O2 (50:50%), CCI-rats or STZ-diabetic rats received a single bolus injection (200 μL) of one AT2 receptor antagonist (PD123,319 or L-159,686) by the intravenous (i.v.) or the intraperitoneal (i.p.) route, using a 250 μL Hamilton syringe. The test compounds were administered to CCI-rats at 14 days after CCI-surgery and to STZ-diabetic rats at approximately 8-wks after the induction of diabetes with STZ. Relief of tactile (mechanical) allodynia, the defining symptom of neuropathic pain, by each of the test agents, PD123,319 or L-159,686, was quantified using calibrated von Frey filaments as described below. Tactile allodynia was quantified using calibrated von Frey filaments. Rats were placed in wire mesh testing cages (20 cm×20 cm×20 cm) and allowed to acclimatise for approximately […] Von Frey filaments were used to determine the lowest mechanical threshold required for a brisk paw withdrawal reflex. Briefly, the filament that produced the lowest force was applied to the plantar surface of the hindpaw until the filament buckled slightly. Absence of a response after 5 s prompted use of the next filament in an ascending sequence. Filaments used produced a buckling weight of 2, 4, 6, 8, 10, 12, 14, 16, 18 and 20 g and these were calibrated prior to each testing session. […] For CCI-rats, baseline von Frey paw withdrawal thresholds (PWTs) were quantified prior to CCI-surgery, and at 14 days post-surgery immediately prior to drug administration. For STZ-diabetic rats, baseline von Frey PWT values were determined prior to the induction of diabetes with STZ and at 1-2 weekly intervals thereafter for 8 weeks to document the temporal development of tactile allodynia. For all rats, baseline PWTs were the mean of three readings taken, 5 min apart before drug administration and were determined separately for each hindpaw. After administration of each test compound, von Frey PWTs were determined at the following post-dosing times: 0.08, 0.25, 0.5, 0.75, 1, 1.25, 1.5, 2 and 3 h. Paw withdrawal thresholds (PWTs; g) were plotted against time to construct response versus time curves for each of the two test compounds (PD123,319 and L-159,686) for each dose and dosing route. Whilst adult male SD rats were anaesthetized with 3% isoflurane: 97% oxygen, four loose ligatures were tied around one sciatic nerve to produce a unilateral chronic constriction injury (CCI) according to the method of Bennett and Xie (1988, Pain 33: 87-107). […]
# [3] = test system: rats with a chronic constriction injury (CCI) of the sciatic nerve; experiment: Relief of tactile allodynia (von Frey paw withdrawal thresholds) in the ipsilateral (injured) hindpaw of CCI-rats
# Protocol: as §1, with “87-107). Briefly, the left common sciatic nerve was exposed at mid-thigh level by blunt dissection through the biceps femoris. Proximal to the trifurcation, 10 mm of nerve was freed of adhering tissue and four loose ligatures (3.0 silk) were tied around the sciatic nerve 1 mm apart). The incision was closed in layers. After surgery, rats received benzylpenicillin (60 mg s.c.) to prevent infection and were kept warm during surgical recovery.” for “87-107).”
# [4] = test system: rats with a chronic constriction injury (CCI) of the sciatic nerve; experiment: as above; details: oral bolus 30 μg/kg vs same dose i.p.
# [5] = STZ-diabetic rats, i.p. bolus 1.0 to 100 ng/kg
# [6] = CCI-rats, i.p. bolus 3 to 30 μg/kg
structure (smiles),measurement,setting,value
"COc1ccc2c(c1OCc1ccccc1)C[C@@H](C(=O)O)N(C(=O)C(c1ccccc1)c1ccccc1)C2 [PD-126,055]",relief of tactile allodynia (summary in discussion),"[1]; STZ-diabetic rat model of PDN, single i.p. bolus doses",potent relief of tactile allodynia
same,duration of action,[1]; [5],2 to 3 h
same,onset of action post-dosing,[1]; [5],0.5 h
same,relief of tactile allodynia,[1]; [5],significant relief of tactile allodynia
same,time of peak anti-allodynia post-dosing,[1]; [5],0.75 to 1.0 h
same,reversal of tactile allodynia in the hindpaws,"[1]; STZ-diabetic rats, i.p., higher doses tested",fully reversed
same,onset of anti-allodynia (summary in discussion),"[1]; STZ-diabetic rats, single i.p. bolus doses",relatively rapid onset
same,antinociception in the contralateral hindpaw,[2],insignificant antinociception
same,doses required to produce significant relief of tactile allodynia in CCI-rats compared with STZ-diabetic rats,[3]; CCI-rats vs STZ-diabetic rats,considerably larger doses
same,duration of action,"[3]; CCI-rats, 30 μg/kg, irrespective of dosing route (oral or i.p.)",~3 h
same,anti-allodynia (relief of tactile allodynia) in the ipsilateral hindpaw,[3]; [6],dose-dependent onset of anti-allodynia; also recorded: dose-dependent relief of tactile allodynia
same,onset of anti-allodynia in the ipsilateral hindpaw,[3]; [6],rapid
same,time of peak responses post-dosing,[3]; [6],0.75 to 1 h
same,duration of action,"[3]; CCI-rats, i.p., doses larger than 3 μg/kg",> 3 h
same,duration of action,"[3]; CCI-rats, i.p., lowest dose tested (3 μg/kg)",1.5 h
same,"extent and duration of the anti-allodynic response, oral compared with i.p. route",[4],similar

# Reference: patent US9018207B2, “Method of treatment or prophylaxis” (Spinifex Pharmaceuticals Pty Ltd, priority 2004, dated 2015)
